Source: patent US20080021026A1, “BENZOTHIOPHENE INHIBITORS OF RHO KINASE” (priority 2006, published 2008)
pIC50: −log10 of the molar value. Read-outs that look alike come from different tables or passages of the source.

Target: T1, recombinant N-terminal GST-tagged human Rho kinase 2 (ROCK2, amino acids 1-552) (Homo sapiens, UniProt O75116)
T1 construct: ROCK2, amino acids 1-552; purchased Invitrogen Inc. PV3759
Test: In vitro Rho kinase assay (luciferase-based ATP consumption), ROCK2
Format: biochemical
Method: In Vitro Rho Kinase Assay
Rho kinase biochemical assays described below depend on firefly luciferase-based, indirect measurement of total ATP consumption by the kinase following incubation with substrate and ATP. 25 μl of Rho kinase assay buffer (20 mM Tris-HCL [pH 7.5], 1 mM MgCl2, 0.4 mM CaCl2, 0.15 mM EGTA, 0.1 mg/ml bovine serum albumin) containing 0.82 μg/ml of recombinant N-terminal GST-tagged human Rho kinase 1 (ROCK1, amino acids 1-535, Invitrogen Inc., cat. #PV-3691) or recombinant N-terminal GST-tagged human Rho kinase 2 (ROCK2, amino acids 1-552, Invitrogen Inc., cat #PV3759), 100 μg/ml S6 peptide substrate (related to amino acids 218-249 of the human 40S ribosomal protein S6, and suitable for ROCK1 or ROCK2, e.g. Upstate/Millipore Inc., cat #12-420), and 3 µM ATP are dispensed to wells of a 384 multi-well opaque plate. The plate is centrifuged for 30 seconds at approximately 200×g. 240 nl of test compound in DMSO is dispensed to each well by passive pin transfer. The lag phase of this in vitro kinase reaction permits addition of compounds soon after the reaction initiates. The reaction is allowed to incubate at 30° C. for 2 hours. The assay plates are sealed and maintained in a humidified environment. After 2 hours, 25 μl of easylite protein kinase assay reagent (Perkin-Elmer, Inc.) is dispensed. After an additional 10 minute incubation at room temperature (about 22° C.), luminescence activity is measured on a Molecular Devices Analyst multi-mode plate reader or other suitable plate reader. Kinase inhibition results in less ATP consumption, and therefore increased luminescence signal. Negative control activity is measured with DMSO lacking any test compound. The positive control is 2-methyl-1-(4-methylisoquinolin-5-ylsulfonyl)perhydro-1,4-diazepine hydrochloride (aka H-1152P, HCl salt). Efficacy is measured as a percentage of positive control activity. […] In some cases, kinase reactions and compound testing are performed in 1536 multi-well plates under similar conditions, with assay volumes appropriately scaled. The designation NT means the cited example was not tested.

[1] = recombinant GST-tagged human ROCK2, luciferase-based ATP consumption, read-out: ROCK2 IC50

T1 sequence (O75116 1-552): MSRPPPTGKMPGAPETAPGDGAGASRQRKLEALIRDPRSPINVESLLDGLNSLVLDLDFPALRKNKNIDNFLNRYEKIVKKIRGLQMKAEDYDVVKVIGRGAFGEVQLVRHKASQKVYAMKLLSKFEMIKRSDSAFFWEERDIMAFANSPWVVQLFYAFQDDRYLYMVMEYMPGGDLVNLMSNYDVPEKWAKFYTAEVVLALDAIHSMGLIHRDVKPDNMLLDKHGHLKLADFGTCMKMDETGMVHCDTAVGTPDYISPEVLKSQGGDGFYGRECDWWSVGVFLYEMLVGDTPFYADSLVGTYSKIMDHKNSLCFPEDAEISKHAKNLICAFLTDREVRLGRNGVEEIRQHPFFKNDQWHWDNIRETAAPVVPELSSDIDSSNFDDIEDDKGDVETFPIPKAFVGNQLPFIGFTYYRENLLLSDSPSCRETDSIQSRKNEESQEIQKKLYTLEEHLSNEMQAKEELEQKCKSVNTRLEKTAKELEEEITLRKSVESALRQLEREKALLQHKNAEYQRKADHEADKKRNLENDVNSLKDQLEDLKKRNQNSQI

Structure (SMILES) | pIC50 [1] | pIC50 (ROCK2 IC50, recombinant GST-tagged human ROCK2, luciferase-based ATP consumption)
Cc1c(-c2ccnc(N)n2)sc2ccc(C(=O)N[C@@H](C)c3ccccc3)cc12 [Example 376, C[C@H](NC(═O)c1ccc2sc(c(C)c2c1)-c3ccnc(N)n3)c4ccccc4] | > 5.30 | –
Cc1c(-c2ccnc(N)n2)sc2ccc(C(=O)N[C@H](C)c3ccccc3)cc12 [Example 377, C[C@@H](NC(═O)c1ccc2sc(c(C)c2c1)-c3ccnc(N)n3)c4ccccc4] | > 5.30 | –
Cc1ccc(CNC(=O)c2ccc3sc(-c4ccnc(N)n4)c(C)c3c2)cc1 [Example 380, Cc1ccc(CNC(═O)c2ccc3sc(c(C)c3c2)-c4ccnc(N)n4)cc1] | > 5.30 | –
Cc1c(-c2ccnc(N)n2)sc2ccc(C(=O)NCCCn3ccnc3)cc12 [Example 385, Cc1c(sc2ccc(cc12)C(═O)NCCCn3ccnc3)-c4ccnc(N)n4] | > 5.30 | –
Cc1c(-c2ccnc(N)n2)sc2ccc(C(=O)NCCC3CCCN3C)cc12 (centres unmarked) [Example 386, CN1CCCC1CCNC(═O)c2ccc3sc(c(C)c3c2)-c4ccnc(N)n4] | > 5.30 | –
Cc1c(-c2ccnc(N)n2)sc2ccc(C(=O)NCCN3CCCCC3)cc12 [Example 387, Cc1c(sc2ccc(cc12)C(═O)NCCN3CCCCC3)-c4ccnc(N)n4] | > 5.30 | –
Cc1c(-c2ccnc(N)n2)sc2ccc(C(=O)NC(C)CCCC(C)C)cc12 (centres unmarked) [Example 388, CC(C)CCCC(C)NC(═O)c1ccc2sc(c(C)c2c1)-c3ccnc(N)n3] | < 5.30 | –
Cc1c(-c2ccnc(N)n2)sc2ccc(C(=O)NCCN3CCOCC3)cc12 [Example 389, Cc1c(sc2ccc(cc12)C(═O)NCCN3CCOCC3)-c4ccnc(N)n4] | > 5.30 | –
CCOC(=O)CC(C)NC(=O)c1ccc2sc(-c3ccnc(N)n3)c(C)c2c1 (centres unmarked) [Example 390, CCOC(═O)CC(C)NC(═O)c1ccc2sc(c(C)c2c1)-c3ccnc(N)n3] | > 5.30 | –
Cc1c(-c2ccnc(N)n2)sc2ccc(C(=O)NC3CCc4ccccc43)cc12 (centres unmarked) [Example 391, Cc1c(sc2ccc(cc12)C(═O)NC3CCc4ccccc34)-c5ccnc(N)n5] | > 5.30 | –
Cc1ccc(CCNC(=O)c2ccc3sc(-c4ccnc(N)n4)c(C)c3c2)cc1 [Example 392, Cc1ccc(CCNC(═O)c2ccc3sc(c(C)c3c2)-c4ccnc(N)n4)cc1] | < 5.30 | –
Cc1c(-c2ccnc(N)n2)sc2ccc(C(=O)NC(C)Cc3ccncc3)cc12 (centres unmarked) [Example 399, CC(Cc1ccncc1)NC(═O)c2ccc3sc(c(C)c3c2)-c4ccnc(N)n4] | > 5.30 | –
COc1ccc(CNC(=O)c2ccc3sc(-c4ccnc(N)n4)c(C)c3c2)cc1 [Example 403, COc1ccc(CNC(═O)c2ccc3sc(c(C)c3c2)-c4ccnc(N)n4)cc1] | > 5.30 | –
Cc1c(-c2ccnc(N)n2)sc2ccc(C(=O)NCc3ccccc3Cl)cc12 [Example 409, Cc1c(sc2ccc(cc12)C(═O)NCc3ccccc3Cl)-c4ccnc(N)n4] | – | > 5.30
Cc1c(-c2ccnc(N)n2)sc2ccc(C(=O)NCCCN3CCCC3=O)cc12 [Example 411, Cc1c(sc2ccc(cc12)C(═O)NCCCN3CCCC3═O)-c4ccnc(N)n4] | < 5.30 | –
Cc1c(-c2ccnc(N)n2)sc2ccc(C(=O)NCCCN3CCOCC3)cc12 [Example 415, Cc1c(sc2ccc(cc12)C(═O)NCCCN3CCOCC3)-c4ccnc(N)n4] | > 5.30 | –
Cc1c(-c2ccnc(N)n2)sc2ccc(C(=O)NCCN(C(C)C)C(C)C)cc12 [Example 416, CC(C)N(CCNC(═O)c1ccc2sc(c(C)c2c1)-c3ccnc(N)n3)C(C)C] | > 5.30 | –
Cc1c(-c2ccnc(N)n2)sc2ccc(C(=O)NC3CCCc4ccccc43)cc12 (centres unmarked) [Example 417, Cc1c(sc2ccc(cc12)C(═O)NC3CCCc4ccccc34)-c5ccnc(N)n5] | > 5.30 | –
Cc1c(-c2ccnc(N)n2)sc2ccc(C(=O)NC(C)CCc3ccccc3)cc12 (centres unmarked) [Example 418, CC(CCc1ccccc1)NC(═O)c2ccc3sc(c(C)c3c2)-c4ccnc(N)n4] | < 5.30 | –

Now from value to compound, other results behind:

pIC50 [1] | Structure (SMILES) | pIC50 (ROCK2 IC50, recombinant GST-tagged human ROCK2, luciferase-based ATP consumption)
> 5.30 | Cc1cccc(CNC(=O)c2ccc3sc(-c4ccnc(N)n4)c(C)c3c2)c1 [Example 375, Cc1cccc(CNC(═O)c2ccc3sc(c(C)c3c2)-c4ccnc(N)n4)c1] | –
> 5.30 | Cc1c(-c2ccnc(N)n2)sc2ccc(C(=O)NCCc3ccccc3)cc12 [Example 378, Cc1c(sc2ccc(cc12)C(═O)NCCc3ccccc3)-c4ccnc(N)n4] | –
> 5.30 | Cc1ccccc1CNC(=O)c1ccc2sc(-c3ccnc(N)n3)c(C)c2c1 [Example 379, Cc1ccccc1CNC(═O)c2ccc3sc(c(C)c3c2)-c4ccnc(N)n4] | –
> 5.30 | Cc1cnc(CNC(=O)c2ccc3sc(-c4ccnc(N)n4)c(C)c3c2)cn1 [Example 381, Cc1cnc(CNC(═O)c2ccc3sc(c(C)c3c2)-c4ccnc(N)n4)cn1] | –
> 5.30 | Cc1c(-c2ccnc(N)n2)sc2ccc(C(=O)NCc3cccc(F)c3)cc12 [Example 382, Cc1c(sc2ccc(cc12)C(═O)NCc3cccc(F)c3)-c4ccnc(N)n4] | –
> 5.30 | Cc1c(-c2ccnc(N)n2)sc2ccc(C(=O)NCc3ccc(F)cc3)cc12 [Example 383, Cc1c(sc2ccc(cc12)C(═O)NCc3ccc(F)cc3)-c4ccnc(N)n4] | –
> 5.30 | Cc1c(-c2ccnc(N)n2)sc2ccc(C(=O)NCc3ccccc3F)cc12 [Example 384, Cc1c(sc2ccc(cc12)C(═O)NCc3ccccc3F)-c4ccnc(N)n4] | –
> 5.30 | Cc1ccc(C)c(CNC(=O)c2ccc3sc(-c4ccnc(N)n4)c(C)c3c2)c1 [Example 393, Cc1ccc(C)c(CNC(═O)c2ccc3sc(c(C)c3c2)-c4ccnc(N)n4)c1] | –
< 5.30 | Cc1ccc([C@H](C)NC(=O)c2ccc3sc(-c4ccnc(N)n4)c(C)c3c2)cc1 [Example 394, C[C@H](NC(═O)c1ccc2sc(c(C)c2c1)-c3ccnc(N)n3)c4ccc(C)cc4] | –
< 5.30 | Cc1ccc([C@@H](C)NC(=O)c2ccc3sc(-c4ccnc(N)n4)c(C)c3c2)cc1 [Example 395, C[C@@H](NC(═O)c1ccc2sc(c(C)c2c1)-c3ccnc(N)n3)c4ccc(C)cc4] | –
> 5.30 | Cc1c(-c2ccnc(N)n2)sc2ccc(C(=O)NCC(C)c3ccccc3)cc12 (centres unmarked) [Example 396, CC(CNC(═O)c1ccc2sc(c(C)c2c1)-c3ccnc(N)n3)c4ccccc4] | –
> 5.30 | Cc1c(-c2ccnc(N)n2)sc2ccc(C(=O)NCCCc3ccccc3)cc12 [Example 397, Cc1c(sc2ccc(cc12)C(═O)NCCCc3ccccc3)-c4ccnc(N)n4] | –
< 5.30 | Cc1ccc(CNC(=O)c2ccc3sc(-c4ccnc(N)n4)c(C)c3c2)cc1C [Example 398, Cc1ccc(CNC(═O)c2ccc3sc(c(C)c3c2)-c4ccnc(N)n4)cc1C] | –
> 5.30 | Cc1c(-c2ccnc(N)n2)sc2ccc(C(=O)NCCc3ccc(O)cc3)cc12 [Example 400, Cc1c(sc2ccc(cc12)C(═O)NCCc3ccc(O)cc3)-c4ccnc(N)n4] | –
> 5.30 | Cc1c(-c2ccnc(N)n2)sc2ccc(C(=O)NCCOc3ccccc3)cc12 [Example 401, Cc1c(sc2ccc(cc12)C(═O)NCCOc3ccccc3)-c4ccnc(N)n4] | –
> 5.30 | COc1ccccc1CNC(=O)c1ccc2sc(-c3ccnc(N)n3)c(C)c2c1 [Example 402, COc1ccccc1CNC(═O)c2ccc3sc(c(C)c3c2)-c4ccnc(N)n4] | –
> 5.30 | COc1cccc(CNC(=O)c2ccc3sc(-c4ccnc(N)n4)c(C)c3c2)c1 [Example 404, COc1cccc(CNC(═O)c2ccc3sc(c(C)c3c2)-c4ccnc(N)n4)c1] | –
> 5.30 | Cc1c(-c2ccnc(N)n2)sc2ccc(C(=O)NCCc3ccc(F)cc3)cc12 [Example 405, Cc1c(sc2ccc(cc12)C(═O)NCCc3ccc(F)cc3)-c4ccnc(N)n4] | –
> 5.30 | Cc1c(-c2ccnc(N)n2)sc2ccc(C(=O)NCCc3ccccc3F)cc12 [Example 406, Cc1c(sc2ccc(cc12)C(═O)NCCc3ccccc3F)-c4ccnc(N)n4] | –
> 5.30 | Cc1c(-c2ccnc(N)n2)sc2ccc(C(=O)NCCc3cccc(F)c3)cc12 [Example 407, Cc1c(sc2ccc(cc12)C(═O)NCCc3cccc(F)c3)-c4ccnc(N)n4] | –
> 5.30 | Cc1c(-c2ccnc(N)n2)sc2ccc(C(=O)NCc3cccc(Cl)c3)cc12 [Example 408, Cc1c(sc2ccc(cc12)C(═O)NCc3cccc(Cl)c3)-c4ccnc(N)n4] | –
> 5.30 | Cc1c(-c2ccnc(N)n2)sc2ccc(C(=O)NCc3ccc(Cl)cc3)cc12 [Example 410, Cc1c(sc2ccc(cc12)C(═O)NCc3ccc(Cl)cc3)-c4ccnc(N)n4] | –
> 5.30 | Cc1c(-c2ccnc(N)n2)sc2ccc(C(=O)NCc3ccc(F)cc3F)cc12 [Example 412, Cc1c(sc2ccc(cc12)C(═O)NCc3ccc(F)cc3F)-c4ccnc(N)n4] | –
> 5.30 | Cc1c(-c2ccnc(N)n2)sc2ccc(C(=O)NCc3ccc(F)c(F)c3)cc12 [Example 413, Cc1c(sc2ccc(cc12)C(═O)NCc3ccc(F)c(F)c3)-c4ccnc(N)n4] | –
> 5.30 | Cc1c(-c2ccnc(N)n2)sc2ccc(C(=O)NCc3cc(F)cc(F)c3)cc12 [Example 414, Cc1c(sc2ccc(cc12)C(═O)NCc3cc(F)cc(F)c3)-c4ccnc(N)n4] | –
